The source of these data is patent US11111375B2, “Compositions and methods for generating oligodendrocyte precursors” (The Regents of the University of California, priority 2015, dated 2021).

Experiment [1] has as its system H9 hESCs. Description: Preliminary comparison of SHH and SAG for early OPC differentiation (ICC). The class given is cell-based, human. The settings on record: 3D, 13 days. The method, then:
Following expansion, hPSCs were cultured in early OPC differentiation medium as described in FIG. 4A and fed daily with neural induction medium. Briefly, cells were first patterned with the dual-SMAD inhibitors LDN193189 and SB431542, and then ventralized using SHH or SAG. In some conditions, cells were caudalized using RA. On day 11 of the differentiation, cell-aggregates were split at a 1 to 3 ratio, broken into smaller-size aggregates by gentle pipetting (up and down, 10-15 times), re-encapsulated in the thermoresponsive gel, and fed with OPC proliferation medium. O1 ng/mL of FGF-2 (Peprotech) was then added to the OPC proliferation media described in FIG. 7A (added daily from day 14 until day 18, or from day 20 until day 24 of the differentiation). After FGF treatment, cells were fed every 2-3 days with OPC maturation medium, which included 20 μg/mL of L-Ascorbic Acid (Sigma) from day 75 until day 95. […]
For ICC analysis of cells differentiated in 3D, cell-spheres were transferred onto poly-D-lysine (10 μg/mL) and laminin (10 μg/mL)-coated glass-bottom plates, and incubated with their respective medium to enable cell spreading. […] Image Xpress Micro (IXM) was used for ICC quantification analysis, and Zeiss LSM 710 Axio Observer was used for confocal imaging. Images were analyzed using ImageJ and quantified using CellProfiler.

Experiment [2] concerns H9 cells. Description: ICC of OPC maturation markers (O4, SOX10, NKX2.2, OLIG2) in H9 cells. Type of experiment: cell-based, human. The method, then:
Following expansion, hPSCs were cultured in early OPC differentiation medium as described in FIG. 4A and fed daily with neural induction medium. Briefly, cells were first patterned with the dual-SMAD inhibitors LDN193189 and SB431542, and then ventralized using SHH or SAG. In some conditions, cells were caudalized using RA. On day 11 of the differentiation, cell-aggregates were split at a 1 to 3 ratio, broken into smaller-size aggregates by gentle pipetting (up and down, 10-15 times), re-encapsulated in the thermoresponsive gel, and fed with OPC proliferation medium. O1 ng/mL of FGF-2 (Peprotech) was then added to the OPC proliferation media described in FIG. 7A (added daily from day 14 until day 18, or from day 20 until day 24 of the differentiation). After FGF treatment, cells were fed every 2-3 days with OPC maturation medium, which included 20 μg/mL of L-Ascorbic Acid (Sigma) from day 75 until day 95. See FIG. 20 for a detailed description of the differentiation conditions.
For ICC analysis of cells differentiated in 3D, cell-spheres were transferred onto poly-D-lysine (10 μg/mL) and laminin (10 μg/mL)-coated glass-bottom plates, and incubated with their respective medium to enable cell spreading. After 48 hr (for early OPC differentiation) or 5 days (for late stage OPC analysis), cells were fixed with 4% PFA for 15 min at RT. After one wash with PBS, cells were incubated overnight at 4° C. with primary antibody in freshly prepared staining primary solution (5% donkey serum, (DS), 2% bovine serum albumin (BSA) and 0.25% Triton X-100 in PBS). Then, cells were gently washed twice with PBS, and incubated for 2 hr at room temperature (RT) with secondary antibodies and 4′,6-diamidino-2-phenylindole (DAPI) (1:1000) in freshly prepared secondary staining solution (2% DS, 2% BSA and 0.25% Triton X-100 in PBS). Cells were then washed three times with PBS and imaged using a Zeiss Axio Observer epi-fluorescent microscope. Image Xpress Micro (IXM) was used for ICC quantification analysis, and Zeiss LSM 710 Axio Observer was used for confocal imaging. Images were analyzed using ImageJ and quantified using CellProfiler.

Where [3] appears, read: early FGF treatment: FGF-2 daily day 14 to day 18.

For the compound `CNC1CCC(N(Cc2cccc(-c3ccncc3)c2)C(=O)c2sc3ccccc3c2Cl)CC1` (centres unmarked) [SAG], the “differences in NKX2.2 and OLIG2 expression, SHH vs SAG” value in experiment [1] is reported as “only minor differences”.
Take “FGF-2: basic fibroblast growth factor-2 added to OPC proliferation medium”: the “fewer O4+ OPCs than with early FGF treatment” value in experiment [2] (FGF-2 from days 20-24, day 95) is on record as around 4 fold. Also, in experiment [2] (setting [3]), the “OPC differentiation on day 24 versus analogous condition without FGF” value is reported as “similar” and the “number of cells expressing O4 by day 95” value was “increased”.
With Vitamin D [reference compound], in experiment [2] (0.1 μM from day 66 to day 95, H9 hESCs, condition 6 and early FGF), the “O4 expression among treated cells” value is listed as “no increase”.
